Measured values as given in the supplement of paper PMC10307832.

Assays:
Assay in all cases: relative viability (nuclei count vs DMSO), 5 days (fraction); higher = more cells survive
[1] = compound: C/C(=N\NC(=S)N1CCC1)/C2=CC=CC=N2 + O=C(CCCCCCC(=O)Nc1ccccc1)NO [Vorinostat] (partner 1 µM)
Summary of the method: (§1)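 Values are medians from duplicate plates. Each reflects relative viability, defined as the nuclei count of treated wells over that of vehicle wells. Lung cancer cell lines in 1536-well plates were pin-tool dosed one day after seeding with one drug alone or with a fixed anchor-drug dose plus five library-drug doses (not always all listed) in √10 steps, then fixed, stained and imaged at 4× after 5 days.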

[2] = compound: C/C(=N\NC(=S)N1CCC1)/C2=CC=CC=N2 + Nc1nc2[nH]cc(CCc3ccc(C(=O)N[C@@H](CCC(=O)O)C(=O)O)cc3)c2c(=O)[nH]1 [Pemetrexed] (partner 0.2 µM)
Summary of the method: as §1

[3] = compound: C/C(=N\NC(=S)N1CCC1)/C2=CC=CC=N2 + Cc1nc(Nc2ncc(C(=O)Nc3c(C)cccc3Cl)s2)cc(N2CCN(CCO)CC2)n1 [Dasatinib] (partner 0.075 µM)
Summary of the method: as §1

[4] = compound: C/C(=N\NC(=S)N1CCC1)/C2=CC=CC=N2 + CC(=O)c1c(C)c2cnc(Nc3ccc(N4CCNCC4)cn3)nc2n(C2CCCC2)c1=O [Palbociclib] (partner 0.5 µM)
Summary of the method: as §1

Cell Line | relative viability ([1]; first compound 0.05 µM) | relative viability ([1]; first compound 0.1581 µM) | relative viability ([1]; first compound 0.5 µM) | relative viability ([1]; first compound 1.581 µM) | relative viability ([1]; first compound 5 µM) | relative viability ([2]; first compound 0.05 µM) | relative viability ([2]; first compound 0.1581 µM) | relative viability ([2]; first compound 0.5 µM) | relative viability ([2]; first compound 1.581 µM) | relative viability ([2]; first compound 5 µM) | relative viability ([3]; first compound 0.05 µM) | relative viability ([3]; first compound 0.1581 µM) | relative viability ([3]; first compound 0.5 µM) | relative viability ([3]; first compound 1.581 µM) | relative viability ([3]; first compound 5 µM) | relative viability ([4]; first compound 0.05 µM) | relative viability ([4]; first compound 0.1581 µM) | relative viability ([4]; first compound 0.5 µM) | relative viability ([4]; first compound 1.581 µM) | relative viability ([4]; first compound 5 µM)
NCI-H1915 | 0.108 | 0.0989 | 0.117 | 0.11 | 0.118 | 0.128 | 0.142 | 0.163 | 0.133 | 0.126 | 0.117 | 0.132 | 0.123 | 0.115 | 0.142 | 0.166 | 0.159 | 0.138 | 0.12 | 0.124
NCI-H1944 | 0.17 | 0.154 | 0.137 | 0.126 | 0.135 | 0.212 | 0.15 | 0.133 | 0.112 | 0.124 | 0.139 | 0.151 | 0.153 | 0.128 | 0.127 | 0.253 | 0.3 | 0.166 | 0.148 | 0.129
NCI-H1975 | 0.173 | 0.167 | 0.136 | 0.154 | 0.167 | 0.133 | 0.144 | 0.141 | 0.155 | 0.145 | 0.104 | 0.0967 | 0.0846 | 0.0879 | 0.0899 | 0.105 | 0.106 | 0.105 | 0.11 | 0.131
NCI-H1993 | 0.337 | 0.539 | 0.319 | 0.338 | 0.446 | 0.382 | 0.487 | 0.436 | 0.405 | 0.375 | 0.433 | 0.525 | 0.525 | 0.434 | 0.435 | 0.345 | 0.36 | 0.349 | 0.405 | 0.377
NCI-H2009 | 0.0755 | 0.107 | 0.129 | 0.103 | 0.0974 | 0.0997 | 0.122 | 0.134 | 0.15 | 0.122 | 0.112 | 0.143 | 0.145 | 0.122 | 0.103 | 0.0949 | 0.102 | 0.108 | 0.112 | 0.0775
NCI-H2023 | 0.082 | 0.0635 | 0.0543 | 0.0492 | 0.043 | 0.0924 | 0.0863 | 0.0863 | 0.0559 | 0.0883 | 0.0588 | 0.071 | 0.0685 | 0.0516 | 0.0624 | 0.0715 | 0.0684 | 0.0648 | 0.0566 | 0.086
NCI-H2085 | 0.339 | 0.379 | 0.355 | 0.288 | 0.305 | 0.248 | 0.264 | 0.237 | 0.178 | 0.244 | 0.209 | 0.219 | 0.27 | 0.259 | 0.229 | 0.275 | 0.303 | 0.261 | 0.279 | 0.273
NCI-H2087 | 0.145 | 0.0717 | 0.14 | 0.0948 | 0.098 | 0.16 | 0.181 | 0.214 | 0.163 | 0.119 | 0.129 | 0.15 | 0.15 | 0.107 | 0.0833 | 0.104 | 0.0945 | 0.12 | 0.118 | 0.0998
